Data published in article PMC12586182 (Frontiers in Oncology, 2025).

Legend:
Test in all cases: Cell viability assay (ATPlite)
Format in all cases: cell-based
786-O = details: Homo sapiens, 786-0; 786-O cell line, 72 hours incubation
Procedure: (§1) Intracellular ATP content was used as an indirect readout of cell number using the ATPlite 1Step bioluminescence assay (Revvity, Groningen, the Netherlands). Cells were seeded in 384-well plates at an optimized density to ensure unrestricted growth and maximal signal at the end of the experiment. After 24 hours of incubation, the starting cell number was determined by adding ATPlite to each well of a control plate and recording luminescence on an Envision multimode reader (Revvity, Waltham, MA, USA) ([4]). Compounds were diluted in DMSO in √10-fold steps from 10 mmol/L stocks to obtain 9-point dilution series. After further 31.6-fold dilution in 20 mmol/L HEPES (pH 7.4), the dilution series were added in duplicate to the cells in the 384-well plates to determine the effect of the compounds on cell viability. Vehicle-treated controls were included to determine maximal cell proliferation. The final DMSO concentration was 0.4% (v/v) in all wells. After incubation for an additional 72 hours, the ATP content was measured in each well using ATPlite. The luminescent signal in inhibitor-treated wells was normalized to vehicle-treated control wells to determine the percentage viability at each concentration. Cell doublings were determined by relating the cell number of vehicle-treated controls to the starting cell number for each cell line. The viability assay of a cell line was repeated when the cell doubling deviated > 2-fold from the historic doubling as determined by multiple independent experiments. The quality of the complete assay was determined by a parallel test with doxorubicin on two cell lines. IC50 values were calculated by fitting a four-parameter logistic model to the percentage viability values using IDBS XLfit5 (IDBS, Guildford, United Kingdom). All curves were visually inspected and submitted to an F-test as implemented in IDBS XLfit5. Curves with an F-value above 1.5 were invalidated and IC50 values were maximized at the highest concentration.

A-204 = details: Homo sapiens, A204; A-204 cell line, 72 hours incubation
Procedure: as §1

ACHN = details: Homo sapiens; ACHN cell line, 72 hours incubation
Procedure: as §1

AsPC-1 = details: Homo sapiens, ASPC1; AsPC-1 cell line, 72 hours incubation
Procedure: as §1

BT-20 = details: Homo sapiens; BT-20 cell line, 72 hours incubation
Procedure: as §1

COLO 829 = details: Homo sapiens; COLO 829 cell line, 72 hours incubation
Procedure: as §1

DU145 = details: Homo sapiens, DU-145; DU145 cell line, 72 hours incubation
Procedure: as §1

DoHH2 = details: Homo sapiens, DOHH-2; DoHH2 cell line, 72 hours incubation
Procedure: as §1

EoL-1 = details: Homo sapiens, EOL1; EoL-1 cell line, 72 hours incubation
Procedure: as §1

HCC4006 = details: Homo sapiens; HCC4006 cell line, 72 hours incubation
Procedure: as §1

HCC827 = details: Homo sapiens; HCC827 cell line, 72 hours incubation
Procedure: as §1

HCT 15 = details: Homo sapiens; HCT 15 cell line, 72 hours incubation
Procedure: as §1

HEC-1 = details: Homo sapiens; HEC-1 cell line, 72 hours incubation
Procedure: as §1

Hs 766T = details: Homo sapiens, Hs766T; Hs 766T cell line, 72 hours incubation
Procedure: as §1

HuTu 80 = details: Homo sapiens, HuTu80; HuTu 80 cell line, 72 hours incubation
Procedure: as §1

LNCaP clone FGC = details: Homo sapiens; LNCaP clone FGC cell line, 72 hours incubation
Procedure: as §1

MDA-MB-231 = details: Homo sapiens; MDA-MB-231 cell line, 72 hours incubation
Procedure: as §1

MKN45 = details: Homo sapiens, MKN-45; MKN45 cell line, 72 hours incubation
Procedure: as §1

NCI-H1975 = details: Homo sapiens; NCI-H1975 cell line, 72 hours incubation
Procedure: as §1

NCI-H2052 = details: Homo sapiens; NCI-H2052 cell line, 72 hours incubation
Procedure: as §1

NCI-H226 = details: Homo sapiens; NCI-H226 cell line, 72 hours incubation
Procedure: as §1

NCI-H2452 = details: Homo sapiens; NCI-H2452 cell line, 72 hours incubation
Procedure: as §1

NCI-H82 = details: Homo sapiens; NCI-H82 cell line, 72 hours incubation
Procedure: as §1

PA-1 = details: Homo sapiens; PA-1 cell line, 72 hours incubation
Procedure: as §1

SK-N-AS = details: Homo sapiens; SK-N-AS cell line, 72 hours incubation
Procedure: as §1

SK-N-SH = details: Homo sapiens; SK-N-SH cell line, 72 hours incubation
Procedure: as §1

SNU-5 = details: Homo sapiens; SNU-5 cell line, 72 hours incubation
Procedure: as §1

SW626 = details: Homo sapiens; SW626 cell line, 72 hours incubation
Procedure: as §1

SW684 = details: Homo sapiens; SW684 cell line, 72 hours incubation
Procedure: as §1

T24 = details: Homo sapiens, T-24; T24 cell line, 72 hours incubation
Procedure: as §1

UM-UC-3 = details: Homo sapiens, UMUC3; UM-UC-3 cell line, 72 hours incubation
Procedure: as §1

Compound: O=C(c1ccc(Oc2ccccc2)cc1Cl)c1c[nH]c2ncnc(N[C@@H]3CC[C@@H](CO)OC3)c12 [nemtabrutinib]
- IC50 (786-O): 6.71 µM
- IC50 (A-204): 6.75 µM
- IC50 (ACHN): 2.29 µM
- IC50 (AsPC-1): 3.83 µM
- IC50 (BT-20): 14.5 µM
- IC50 (COLO 829): 1.54 µM
- IC50 (DU145): 1.64 µM
- IC50 (DoHH2): 0.486 µM
- IC50 (EoL-1): 0.059 µM
- IC50 (HCC4006): 6.17 µM
- IC50 (HCC827): 4.72 µM
- IC50 (HCT 15): 5.78 µM
- IC50 (HEC-1): 4.58 µM
- IC50 (Hs 766T): 1.82 µM
- IC50 (HuTu 80): 1.68 µM
- IC50 (LNCaP clone FGC): > 31.6 µM
- IC50 (MDA-MB-231): 2.59 µM
- IC50 (MKN45): 5.26 µM
- IC50 (NCI-H1975): 2.31 µM
- IC50 (NCI-H2052): 5.24 µM
- IC50 (NCI-H226): 4.62 µM
- IC50 (NCI-H2452): 5.46 µM
- IC50 (NCI-H82): 12.3 µM
- IC50 (PA-1): 3.03 µM
- IC50 (SK-N-AS): 2.81 µM
- IC50 (SK-N-SH): 3.43 µM
- IC50 (SNU-5): 8.05 µM
- IC50 (SW626): 3.13 µM
- IC50 (SW684): 11.9 µM
- IC50 (T24): 2.79 µM
- IC50 (UM-UC-3): 5.35 µM
